# In ChEMBL document CHEMBL5584244, “Discovery of novel pyrrolo[2,1-c][1,4]benzodiazepine-3,11-dione (PBD) derivatives as selective HDAC6 inhibitors for the efficient treatment of idiopathic pulmonary fibrosis (IPF) in vitro and in vivo” (Eur J Med Chem, 2024):
# Active and inactive are the calls of the source. The rule behind the calls is not given here.
# Legend:
# [1] = Cytotoxicity against HELF cells assessed as reduction in viability at 1 to 300 uM after 48 hrs under without FBS condition by MTT assay; assay type: toxicity, cell-based; conditions: human, dose 1-300 µM
# HELF = assay: Antifibrotic activity against TGF-beta1-induced HELF cells assessed as reduction in viability at 10 uM after 48 hrs by MTT assay; assay type: functional, cell-based; conditions: Homo sapiens
# [2] = Cytotoxicity against HELF cells assessed as reduction in viability at 10 uM after 48 hrs by MTT assay; assay type: toxicity, cell-based; conditions: human
# Histone deacetylase 1 = Histone deacetylase 1 (Homo sapiens, UniProt Q13547); assay: Inhibition of human HDAC1 incubated for 10 mins and measured after 30 mins by ELISA
# Chain of Histone deacetylase 1 (Q13547 whole entry): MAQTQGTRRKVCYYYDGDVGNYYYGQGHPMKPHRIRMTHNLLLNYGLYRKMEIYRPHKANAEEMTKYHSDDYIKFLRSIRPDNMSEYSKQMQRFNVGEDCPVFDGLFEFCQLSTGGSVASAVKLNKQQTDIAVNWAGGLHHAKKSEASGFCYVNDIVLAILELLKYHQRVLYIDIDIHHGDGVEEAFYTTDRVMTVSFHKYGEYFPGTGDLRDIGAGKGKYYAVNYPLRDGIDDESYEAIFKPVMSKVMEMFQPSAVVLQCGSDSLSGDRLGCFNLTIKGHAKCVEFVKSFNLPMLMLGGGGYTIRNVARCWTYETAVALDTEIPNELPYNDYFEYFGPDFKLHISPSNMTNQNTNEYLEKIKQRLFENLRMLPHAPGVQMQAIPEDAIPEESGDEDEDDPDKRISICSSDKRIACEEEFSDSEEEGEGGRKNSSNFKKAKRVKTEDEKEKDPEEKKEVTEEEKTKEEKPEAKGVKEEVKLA
# [3] = target: T1, Protein deacetylase HDAC6 (Homo sapiens, UniProt Q9UBN7); assay: Inhibition of recombinant human full length HDAC6 using Boc-Lys (Ac)-AMC as substrate incubated for 120 mins by fluorescence analysis
# T1 sequence (Q9UBN7 whole entry): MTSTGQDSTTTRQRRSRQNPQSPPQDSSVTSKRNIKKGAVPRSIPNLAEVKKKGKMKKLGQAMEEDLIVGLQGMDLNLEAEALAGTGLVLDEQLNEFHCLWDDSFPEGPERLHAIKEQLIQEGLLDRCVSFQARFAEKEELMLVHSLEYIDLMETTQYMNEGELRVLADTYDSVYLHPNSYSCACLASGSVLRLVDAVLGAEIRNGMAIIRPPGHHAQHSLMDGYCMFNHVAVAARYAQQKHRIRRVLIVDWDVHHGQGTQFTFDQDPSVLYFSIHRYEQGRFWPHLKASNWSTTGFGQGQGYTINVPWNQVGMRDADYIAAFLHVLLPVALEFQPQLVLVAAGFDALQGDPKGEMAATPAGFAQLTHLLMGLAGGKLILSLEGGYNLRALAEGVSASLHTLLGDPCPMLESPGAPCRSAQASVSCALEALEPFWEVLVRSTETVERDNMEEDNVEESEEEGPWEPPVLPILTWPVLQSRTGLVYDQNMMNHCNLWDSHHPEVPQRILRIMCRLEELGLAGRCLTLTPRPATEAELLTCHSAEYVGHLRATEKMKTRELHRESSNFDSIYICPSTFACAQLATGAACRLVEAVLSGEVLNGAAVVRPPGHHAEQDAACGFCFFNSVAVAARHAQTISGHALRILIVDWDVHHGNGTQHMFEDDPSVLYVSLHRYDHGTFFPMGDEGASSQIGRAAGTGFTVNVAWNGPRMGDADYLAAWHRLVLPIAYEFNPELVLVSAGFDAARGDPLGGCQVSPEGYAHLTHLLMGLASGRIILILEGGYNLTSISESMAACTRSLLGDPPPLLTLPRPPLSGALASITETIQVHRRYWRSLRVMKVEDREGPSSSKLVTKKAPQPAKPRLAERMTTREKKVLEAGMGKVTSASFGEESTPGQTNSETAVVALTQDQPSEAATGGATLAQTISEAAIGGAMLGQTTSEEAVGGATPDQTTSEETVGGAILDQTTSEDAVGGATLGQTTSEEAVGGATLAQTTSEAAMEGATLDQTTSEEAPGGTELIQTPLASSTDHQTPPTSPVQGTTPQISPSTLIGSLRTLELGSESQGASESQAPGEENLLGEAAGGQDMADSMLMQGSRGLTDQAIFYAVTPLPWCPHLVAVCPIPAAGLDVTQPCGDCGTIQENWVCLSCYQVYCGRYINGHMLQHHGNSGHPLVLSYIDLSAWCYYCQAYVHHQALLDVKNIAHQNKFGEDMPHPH
# Homo sapiens = organism: Homo sapiens; assay: Selectivity index, ratio IC50 inhibition of human HDAC1 to IC50 for inhibition of human HDAC6 using Ac-Lys (Ac)-AMC as substrate
# [4] = target: T1, Protein deacetylase HDAC6; assay: Inhibition of human HDAC6 using Ac-Lys (Ac)-AMC as substrate incubated for 120 mins by fluorescence analysis
IC50 (Histone deacetylase 1) [µM],IC50 [3] [µM],Ratio IC50 (Homo sapiens),IC50 [4] [µM],SMILES,Activity [1],Activity (HELF),Activity [2]
,,,,CN1CCc2c(c3ccccc3n2Cc2ccc(C(=O)NO)cc2)C1 [TUBASTATIN A],Toxic,Active,Non-Toxic
0.789,0.0125,36.8,0.0214,O=C(CCCCCCCN1C(=O)[C@@H]2CCC(=O)N2Cc2ccccc21)NO,,,
